Results: PMC5537347, “A short D-enantiomeric antimicrobial peptide with potent immunomodulatory and antibiofilm activity against multidrug-resistant Pseudomonas aeruginosa and Acinetobacter baumannii” (Scientific Reports, 2017)

Legend:
[1] = test system: P. aeruginosa PAO1 biofilm; test: Disruption of established biofilms, microtiter dish crystal violet assay; format: cell-based; settings: mature (24 hour) biofilm, 24 hours at 37 °C, crystal violet OD 595 nm
Description: Figure 1 Efficacy of peptides on established biofilms of P. aeruginosa PAO1 and A. baumannii ATCC BAA-1605. […] After incubation, wells were washed and biofilms were stained with 0.5% (w/v) crystal violet for 30 minutes. The dye was solubilized with ethanol (95%) and the optical density (595 nm) of the biofilm mass was measured. Experiments were repeated twice independently and the average values are reported.
To examine the peptides’ ability to disrupt bacterial biofilms, the microtiter dish biofilm formation assay was employed[41]–[43].

IL-6 = test: Anti-inflammatory effect on LPS-stimulated macrophages, ELISA; format: cell-based, murine; settings: J774A.1 cells, LPS 150 ng/mL, six hours
Description: (§1) Figure 3 Ability of peptides to neutralize LPS and reduce inflammatory cytokines expression. (A) LPS binding activity of peptides. Peptides at different concentrations were incubated with one endotoxin unit (EU) of LPS at 37 °C for 30 minutes. […] The binding of peptides with LPS is expressed as percent change relative to the untreated samples. (B) Anti-inflammatory effect of peptides on LPS-stimulated macrophages. J774A.1 cells were stimulated with LPS (150 ng/mL final concentration) in the presence of different concentrations of peptides. Cells stimulated with LPS alone and untreated cells served as controls. Cells were incubated for six hours at 37 °C before the supernatant from each treatment group was collected. Detection of tumor necrosis factor-α (TNF-α) and interleukin-6 (IL-6) in supernatants was determined using ELISA. Cytokine levels are expressed as percent change relative to the LPS-stimulated control. Statistical analysis was calculated using one-way ANOVA, with post hoc Tukey’s multiple comparisons test. P < 0.05 was considered significant. One asterisk (*) indicates significant difference with the negative control.
(§2) To assess the anti-inflammatory effect of our peptides on LPS-stimulated macrophages, J774A.1 cells were seeded and incubated as described above (for toxicity assessment). Next, the cells were stimulated with LPS (150 ng/ml final concentration) in the presence of different concentrations of peptides (RR and D-RR4). Cells stimulated with LPS alone and untreated cells served as controls. Cells were incubated for six hours at 37 °C and the supernatant from each treatment was collected and stored at −20 °C until use. Tumor necrosis factor-α (TNF-α) and interleukin-6 (IL-6) present in the supernatant was quantified using ELISA, as described previously. Cytokine levels were presented as the percent change relative to the LPS-stimulated control, using triplicate samples for each treatment condition.

TNF-α = test: as above; format: cell-based, murine; settings: J774A.1 cells, LPS 150 ng/mL, six hours
Description: as §1, §2

[2] = test system: C. elegans strain glp-4;sek 1; test: Toxicity of peptides in uninfected C. elegans; format: in vivo, Caenorhabditis elegans; settings: worms grown four days with peptide; D-RR4 and colistin at 8 × MIC
Description: To test the efficacy of the synthetic peptides to protect against infections in vivo, we utilized a C. elegans model of bacterial infection. This model has been used extensively for early-stage evaluation of promising antimicrobials, [35], [36]. Initially, the lethal dose of D-RR4 against uninfected nematodes was determined.
(§3) (A) Evaluation of toxicity of peptides in Caenorhabditis elegans. C. elegans strain glp-4;sek 1 was grown for four days in the presence of peptides at different concentrations. Worms were monitored daily and the live worms were counted. Results are expressed as a Kaplan-Meier survival curve. (B) Evaluation of antimicrobial activity of peptides to reduce the bacterial CFU inside infected Caenorhabditis elegans. C. elegans strain glp-4; sek 1 were infected with P. aeruginosa PAO1, colistin-resistant P. aeruginosa 1109, or A. baumannii ATCC BAA-1605. […] After treatment, worms were lysed and bacteria were counted. One asterisk (*) indicates significant difference with the negative control. Two asterisks (**) indicates significant difference with the monotherapy treatment (P < 0.05). Results are expressed as means from three biological replicates ± standard deviation. (C) Efficacy of peptides in a Caenorhabditis elegans model of bacterial infection. […] Worms were monitored daily and the live worms were counted. Results are expressed as a Kaplan-Meier survival curve. C. elegans receiving no treatment served as a negative control.

[3] = test system: A. baumannii ATCC BAA-1605; test: C. elegans infection model (bacterial burden and survival); format: in vivo, Caenorhabditis elegans; settings: 8 × MIC
Description: as §3, with “elegans.” for “elegans. C. elegans strain glp-4; sek 1 were infected with P. aeruginosa PAO1, colistin-resistant P. aeruginosa 1109, or A. baumannii ATCC BAA-1605.”, “One asterisk (*) indicates significant difference with the negative control. Two asterisks (**) indicates significant difference with the monotherapy treatment (P < 0.05).” left out
(§4) Infection and treatment of C. elegans was done, as described previously, with the following modifications, [53], [54]. […] After infection, worms were collected and washed with PBS three times. Worms (~30 per sample) were transferred either to microcentrifuge tubes (for survival assessment) or 96-well plates (for bacterial CFU determination). […] Untreated worms served as a negative control. To assess the survival of infected C. elegans, worms were assessed for viability (live worms are sinusoidal with movement, whereas dead worms are rigid rods). In order to assess the bacterial load in worms, worms were first washed three times with PBS. They were subsequently lysed by addition of 200 mg of 1.0-mm silicon carbide particles (Biospec Products, Bartlesville, OK) to each tube and vortexing for one minute. Bacteria were plated onto TSA plates containing 100 µg/ml ampicillin to permit the selective growth of P. aeruginosa and A. baumannii over Escherichia coli OP50.

P. aeruginosa PAO1 = test: as above; format: in vivo, Caenorhabditis elegans; settings: 8 × MIC
Description: as §3, with “elegans.” for “elegans. C. elegans strain glp-4; sek 1 were infected with P. aeruginosa PAO1, colistin-resistant P. aeruginosa 1109, or A. baumannii ATCC BAA-1605.”, “One asterisk (*) indicates significant difference with the negative control. Two asterisks (**) indicates significant difference with the monotherapy treatment (P < 0.05).” left out
as §4

[4] = test system: colistin-resistant P. aeruginosa 1109; test: as above; format: in vivo, Caenorhabditis elegans
Description: as §3, with “elegans.” for “elegans. C. elegans strain glp-4; sek 1 were infected with P. aeruginosa PAO1, colistin-resistant P. aeruginosa 1109, or A. baumannii ATCC BAA-1605.”, “One asterisk (*) indicates significant difference with the negative control. Two asterisks (**) indicates significant difference with the monotherapy treatment (P < 0.05).” left out
as §4

Colistin [reference compound]
biofilm mass disrupted ([1]; 4 × MIC): more than 10% | biofilm mass disrupted ([1]; 8 × MIC): > 25% | biofilm mass disrupted ([1]; 16 × MIC): > 28% | biofilm mass disrupted ([1]; 32 × MIC): > 75% | decrease of IL-6 production (IL-6; 10 µM): > 95% | decrease of IL-6 production (IL-6; 20 µM): > 95% | decrease of TNF-α production (TNF-α; 10 µM): > 95% | decrease of TNF-α production (TNF-α; 20 µM): > 95% | toxicity to uninfected worms [2]: not toxic | reduction of bacterial burden (CFU) in infected worms [3]: 96% | worms remaining alive ([3]; 36 hours): remained alive | worms remaining alive ([3]; after 72 hours): 80–85% | reduction of bacterial burden (CFU) in infected worms (P. aeruginosa PAO1): 89% | protection of infected worms (survival) (P. aeruginosa PAO1; 24 and 36 hours): nearly complete protection | protection of infected worms (survival) ([4]; D-RR4 8 × MIC, colistin 1 × MIC, after 24 hours): failed to protect worms from death | reduction of bacterial burden (CFU) in infected worms ([4]; in vivo): unable to significantly decrease bacterial burden
